# Results from patent publication US7812036B2, “Androgens” (N.V. Organon, priority 2004, dated 2010).
# Target: T1, human androgen receptor (Homo sapiens, UniProt P10275)
# T1 construct: expressed in transfected cells; host or cells: Chinese hamster ovary (CHO) cells, line CHO-AR-pMMTV-LUC 1G12-A5-CA
# T1 sequence (P10275 1-920): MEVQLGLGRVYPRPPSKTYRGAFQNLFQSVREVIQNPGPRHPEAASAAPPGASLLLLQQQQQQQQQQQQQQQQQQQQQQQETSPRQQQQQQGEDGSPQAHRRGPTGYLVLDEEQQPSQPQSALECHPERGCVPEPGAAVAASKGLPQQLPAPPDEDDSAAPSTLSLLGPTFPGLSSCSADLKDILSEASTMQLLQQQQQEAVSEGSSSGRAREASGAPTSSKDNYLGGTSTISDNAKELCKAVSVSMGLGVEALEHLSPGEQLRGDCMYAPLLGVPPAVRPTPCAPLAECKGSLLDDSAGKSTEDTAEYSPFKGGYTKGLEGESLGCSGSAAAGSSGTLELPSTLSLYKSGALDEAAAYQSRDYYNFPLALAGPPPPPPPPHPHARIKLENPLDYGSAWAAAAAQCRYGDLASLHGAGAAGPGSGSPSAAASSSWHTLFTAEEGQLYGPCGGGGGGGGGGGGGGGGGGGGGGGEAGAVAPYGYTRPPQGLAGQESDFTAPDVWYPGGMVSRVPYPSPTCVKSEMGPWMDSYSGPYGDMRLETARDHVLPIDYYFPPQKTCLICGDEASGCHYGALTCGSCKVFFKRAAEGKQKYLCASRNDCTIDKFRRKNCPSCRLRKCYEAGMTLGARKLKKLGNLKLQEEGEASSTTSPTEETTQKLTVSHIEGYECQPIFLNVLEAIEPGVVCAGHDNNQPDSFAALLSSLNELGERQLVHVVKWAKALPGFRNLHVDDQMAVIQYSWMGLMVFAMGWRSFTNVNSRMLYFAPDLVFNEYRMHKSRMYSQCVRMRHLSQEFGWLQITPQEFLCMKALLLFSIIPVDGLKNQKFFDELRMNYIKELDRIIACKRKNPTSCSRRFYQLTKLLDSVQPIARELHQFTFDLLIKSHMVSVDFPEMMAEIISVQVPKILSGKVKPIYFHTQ
# Experiment: Androgenic activity (potency) in vitro bioassay, CHO-AR-pMMTV-LUC 1G12-A5-CA cells, luciferase reporter
# Type: cell-based
# Conditions: CHO cells stably transfected with human androgen receptor and MMTV-luciferase reporter; in the presence of 0.1 μmol/l onapristone; potencies expressed as percentage of DHT activity (maximal efficacy with 100 nmol/l DHT set as 100%)
# Procedure: The androgenic activity (potency) of the compounds of the invention was determined in an in vitro bioassay of Chinese hamster ovary (CHO) cells stably transfected with the human androgen receptor expression plasmid and a reporter plasmid in which the MMTV promoter is linked to the luciferase reporter gene. The cell line CHO-AR-pMMTV-LUC 1G12-A5-CA is described in Schoonen et al. (J. Steroid Biochem. Molec. Biol. 2002; 74: 213-222). The androgen receptor activity of compounds was determined in the presence of 0.1 μmol/l onapristone. The maximal efficacy in the presence of 100 nmol/1 DHT was set as 100%. The potencies are expressed as percentage of DHT activity.
row,Molecule,Potency (%)
1,"CNc1ccc2c(Sc3ccccc3C(C)=O)cn(Cc3cc(F)cc(F)c3)c2c1 [Example 8, 1-{2-[1-(3,5-Difluoro-benzyl)-6-methylamino-1H-indol-3-ylsulfanyl]-phenyl}-ethanone]",0.2
2,"CNc1ccc2c(Sc3ccccc3[N+](=O)[O-])cn(Cc3ccccn3)c2c1 [Example 2, Methyl-[3-(2-nitro-phenylsulfanyl)-1-pyridin-2-ylmethyl-1H-indol-6-yl]-amine]",9.9
3,CNc1ccc2c(Sc3ccccc3C#N)cn(Cc3cc(F)cc(F)c3)c2c1 [Example 6],10.5
4,"CNc1ccc2c(Sc3ccccc3[N+](=O)[O-])cn(Cc3ccoc3)c2c1 [Example 5i, [1-Furan-3-ylmethyl-3-(2-nitro-phenylsulfanyl)-1H-indol-6-yl]-methyl-amine]",17.9
5,"COCCNc1ccc2c(Sc3ccccc3[N+](=O)[O-])cn(Cc3cccnc3)c2c1 [Example 21f, (2-Methoxy-ethyl)-[3-(2-nitro-phenylsulfanyl)-1-pyridin-3-ylmethyl-1H-indol-6-yl]-amine]",20.9
6,"CC(=O)CNc1ccc2c(Sc3ccccc3[N+](=O)[O-])cn(Cc3cc(F)cc(F)c3)c2c1 [Example 21a, 1-[1-(3,5-Difluoro-benzyl)-3-(2-nitro-phenylsulfanyl)-1H-indol-6-ylamino]-propan-2-one]",7.2
7,"CNc1ccc2c(S(=O)(=O)c3ccccc3[N+](=O)[O-])cn(Cc3ccccn3)c2c1 [Example 14, Methyl-[3-(2-nitro-phenylsulfonyl)-1-pyridin-2-ylmethyl-1H-indol-6-yl]-amine]",1.9
8,COC(=O)CNc1ccc2c(Sc3ccccc3[N+](=O)[O-])cn(Cc3cc(F)cc(F)c3)c2c1 [Example 22e],4.0
9,CNc1ccc2c([S+]([O-])c3ccccc3[N+](=O)[O-])cn(Cc3ccc(F)cc3)c2c1 (stereo not shown) [Example 5d],4.3
10,"CNc1ccc2c(Sc3ccccc3[N+](=O)[O-])cn(Cc3cscn3)c2c1 [Example 5l, Methyl-[3-(2-nitro-phenylsulfanyl)-1-thiazol-4-ylmethyl-1H-indol-6-yl]-amine]",4.8
11,"O=[N+]([O-])c1ccccc1Sc1cn(Cc2cc(F)cc(F)c2)c2cc(NCC(F)(F)F)ccc12 [Example 21k, [1 (3,5-Difluoro-benzyl)-3-(2-nitro-phenylsulfanyl)-1H-indol-6-yl]-(2,2,2-trifluoroethyl)-amine]",0.6
12,"CCNc1ccc2c(Sc3ccccc3[N+](=O)[O-])cn(Cc3ccccn3)c2c1 [Example 19d, Ethyl-[3-(2-nitro-phenylsulfanyl)-1-pyridin-2-ylmethyl-1H-indol-6-yl]-amine]",6.7
13,CNc1ccc2c(Sc3ccccc3[N+](=O)[O-])cn(Cc3ccccc3F)c2c1 [Example 5b],0.4
14,"CNc1ccc2c(Sc3ccccc3[N+](=O)[O-])cn(Cc3ccco3)c2c1 [Example 5h, [1-Furan-2-ylmethyl-3-(2-nitro-phenylsulfanyl)-1H-indol-6-yl]-methyl-amine]",16.5
15,"CNc1ccc2c(Sc3ccccc3[N+](=O)[O-])cn(Cc3cccc(C(F)(F)F)c3)c2c1 [Example 5q, Methyl-[3-(2-nitro-phenylsulfanyl)-1-(3-trifluoromethyl-benzyl)-1H-indol-6-yl]-amine]",1.0
16,"CNc1ccc2c(Sc3ccccc3[N+](=O)[O-])cn(Cc3cccc(Cl)c3)c2c1 [Example 5p, [1-(3-Chloro-benzyl)-3-(2-nitro-phenylsulfanyl)-1H-indol-6-yl]-methyl-amine]",1.3
17,"COCCNc1ccc2c(Sc3ccccc3[N+](=O)[O-])cn(Cc3ccccn3)c2c1 [Example 21e, (2-Methoxy-ethyl)-[3-(2-nitro-phenylsulfanyl)-1-pyridin-2-ylmethyl-1H-indol-6-yl]-amine]",8.3
18,O=[N+]([O-])c1ccccc1Sc1cn(Cc2cc(F)cc(F)c2)c2cc(NCC3CC3)ccc12 [Example 22d],0.9
19,C=CCNc1ccc2c(Sc3ccccc3[N+](=O)[O-])cn(Cc3cc(F)cc(F)c3)c2c1 [Example 19b],2.4

row,Molecule,Potency (%)
1,"N#CCNc1ccc2c(Sc3ccccc3[N+](=O)[O-])cn(Cc3cccnc3)c2c1 [Example 21j, [3-(2-Nitro-phenylsulfanyl)-1-pyridin-3-ylmethyl-1H-indol-6-ylamino]-acetonitrile]",1.0
2,"CNc1ccc2c(Sc3ccccc3C#N)cn(Cc3ccccn3)c2c1 [Example 7, 2-(6-Methylamino-1-pyridin-2-ylmethyl-1H-indol-3-ylsulfanyl)-benzonitrile]",1.1
3,CNc1ccc2c(Sc3ccccc3C(=O)OC)cn(Cc3cc(F)cc(F)c3)c2c1 [Example 9],0.7
4,CNc1ccc2c(Sc3ccccc3CO)cn(Cc3cc(F)cc(F)c3)c2c1 [Example 10],4.3
5,"N#CCNc1ccc2c(Sc3ccccc3C#N)cn(Cc3cc(F)cc(F)c3)c2c1 [Example 21g, 2-[6-(Cyanomethyl-amino)-1-(3,5-difluoro-benzyl)-1H-indol-3-ylsulfanyl]-benzonitrile]",9.2
6,"CNc1ccc2c(Sc3ccccc3[N+](=O)[O-])cn(Cc3ccno3)c2c1 [Example 5n, [1-Isoxazol-5-ylmethyl-3-(2-nitro-phenylsulfanyl)-1H-indol-6-yl]-methyl-amine]",19.4
7,"CNc1ccc2c(Sc3ccccc3[N+](=O)[O-])cn(Cc3ccccc3)c2c1 [Example 5a, [1-Benzyl-3-(2-nitro-phenylsulfanyl)-1H-indol-6-yl]-methyl-amine]",9.2
8,Methyl-[1-(3-meth 1-benzyl-3-(2-nitro-phenylsulfanyl)-1H-indol-6-yl]-amine [Example 5o],1.6
9,"CNc1ccc2c(Sc3ccccc3[N+](=O)[O-])cn(Cc3ncco3)c2c1 [Example 5m, Methyl-[3-(2-nitro-phenylsulfanyl)-1-oxazol-2-ylmethyl-1H-indol-6-yl]-amine]",3.2
10,"CCNc1ccc2c(Sc3ccccc3[N+](=O)[O-])cn(Cc3cc(F)cc(F)c3)c2c1 [Example 19a, [1-(3,5-Difluoro-benzyl)-3-(2-nitro-phenylsulfanyl)-1H-indol-6-yl]-ethyl-amine]",2.7
11,CN(C)c1ccc2c(Sc3ccccc3[N+](=O)[O-])cn(Cc3cc(F)cc(F)c3)c2c1 [Example 18],2.7
12,N#Cc1ccccc1Sc1cn(Cc2cc(F)cc(F)c2)c2cc(NCCO)ccc12 [Example 21h],2.9
13,"CNc1ccc2c(Sc3ncccc3[N+](=O)[O-])cn(Cc3cc(F)cc(F)c3)c2c1 [Example 12, [1-(3,5-Difluoro-benzyl)-3-(3-nitro-pyridin-2-ylsulfanyl)-1H-indol-6-yl]-methyl-amine]",5.7
14,"CN(C)c1ccc2c(Sc3ccccc3[N+](=O)[O-])cn(Cc3cccnc3)c2c1 [Example 19e, Dimethyl-[3-(2-nitro-phenylsulfanyl)-1-pyridin-3-ylmethyl-1H-indol-6-yl]-amine]",2.6
15,"CNc1ccc2c(Sc3ccccc3[N+](=O)[O-])cn(Cc3cccc(F)c3)c2c1 [Example 5c, [1-(3-Fluoro-benzyl)-3-(2-nitro-phenylsulfanyl)-1H-indol-6-yl]-methyl-amine]",13.3
16,"CNc1ccc2c(Sc3ccccc3[N+](=O)[O-])cn(Cc3cncnc3)c2c1 [Example 5g, Methyl-[3-(2-nitro-phenylsulfanyl)-1-pyrimidin-5-ylmethyl-1H-indol-6-yl]-amine]",21.6
17,"CNc1ccc2c(S(=O)(=O)c3ccccc3[N+](=O)[O-])cn(Cc3cc(F)cc(F)c3)c2c1 [Example 13, [1-(3,5-Difluoro-benzyl)-3-(2-nitro-benzenesulfonyl)-1H-indol-6-yl]-methyl-amine]",18.9
18,"CNc1ccc2c(Sc3ccccc3[N+](=O)[O-])cn(Cc3ccon3)c2c1 [Example 5k, [1-Isoxazol-3-ylmethyl-3-(2-nitro-phenylsulfanyl)-1H-indol-6-yl]-methyl-amine]",11.9
